Laboratory results from patent publication US20020028851A1, “Guanylhydrazones and their use to treat inflammatory conditions” (priority 1994, published 2002).
pIC50: −log10 of the molar value.

Legend:
[1] = system: RAW 264.7 cells; assay: Whole cell inhibition assay for urea output; assay type: cell-based, murine; settings: for pIC50: Mus musculus, RAW264.7, interpolated, γIFN+LPS-activated RAW 264.7, 18 hours, read-out: I.C.50 (in parenthesis), inhibition of urea production; for urea % suppression of induced production: γIFN+LPS, 18 hours
Method: (§1) RAW 264.7 cells are plated in microculture wells at 1×10^6/ml in RPMI 1640 with 10% FBS and otherwise standard culture conditions and allowed to adhere for 5 hours. They are then activated with 25 U/ml γIFN and 0.1 μg/ml LPS in the presence of test inhibitors. The urea concentration present in the supernatant media, after 18 hours of culture, is determined by a colorimetric blood urea nitrogen diacetylmonoxime assay performed on an aliquot of the culture supernatant (Sigma Chem. Co., St. Louis, Mo.) and inhibition is expressed as the percentage urea compared to that of a parallel control culture treated identically except that the concentration of added inhibitor is zero.
(§2) Various concentrations of the test compounds are included in the media of the stimulated RAW 264.7 cells in culture. The concentration of urea and/or nitrite after 18 hours of activated culture is determined and compared to the uninhibited control value obtained from at least one parallel culture. The fractional reduction is calculated for each concentration of inhibitor and the IC50 (concentration giving 50% reduction) is interpolated. Compounds were dissolved in media with mild heat (60° C.). Those with limited solubility were dissolved in base. The concentration of stock solutions of those compounds which were not completely soluble was determined by OD280.

[2] = Solubility on preparing test solutions; assay type: physicochemical; settings: preparation of test solutions
Method: as §2

[3] = system: RAW 264.7 cells; assay: Whole cell inhibition assay for NO (nitrite) output; assay type: cell-based, murine; settings: γIFN+LPS, 18 hours
Method: as §1
The production of nitrite is determined by assay of the same tissue culture supernatant by means of a calorimetric assay. Briefly, 4 parts of test solution containing 1% (w/v) sulfanilamide, 0.1% naphthylethylenediamine di-HCl (Griess Reagent), 2.5% H3PO4 and one part media are mixed, incubated for 10 minutes and the absorbance at 560 nm determined. The nitrite concentrations are interpolated from reference curves prepared using NaNO2.
as §2
(§3) This section describes experiments that measure the concentration of Compound No. 14 needed to inhibit arginine uptake and NO output. The techniques employed were described in section 7.1 supra.

[4] = system: RAW 264.7 cells; assay: Whole cell inhibition assay for arginine uptake; assay type: cell-based, murine; settings: γIFN+LPS, 8 hours
Method: In the embodiment described in the working example herein, a test population of cells was cultured for about 3 hours so that the cells became firmly adherent. Various concentrations of the potential inhibitors were then added to parallel cultures. One hour later the macrophage stimulators, e.g. including, but not limited to LPS and γIFN, were added. Eighteen hours later the cells were washed in a warm balanced salt solution supplemented with glucose. Carrier-free radiolabelled arginine was added; after 5 minutes, active uptake of arginine was stopped by washing the cell three times with buffer, chilled to 0° C., containing 10 mM unlabeled arginine to displace any externally bound label. The contents of the washed cells are solubilized in 100 μl of formic acid and counted by standard techniques.
RAW 264.7 cells are plated in standard 96-well microculture plates at a concentration of 10^5/well and allowed to adhere for from 2 hours to overnight. The medium is then replaced with medium containing the compound to be tested. One hour later, the medium is supplemented so as to contain 25 U/ml γIFN and 0.1 μg/ml LPS and the cultures incubated a further. The cells are then rinsed twice in HEPES- buffered Krebs salt solution with 0.1% glucose. Carrier-free tetra-^3H-arginine is added to each well (2.5 μCi/well with specific activity of […]) and the active uptake of arginine is allowed to continue for a 5 minute period after which the cells are rapidly cooled to 0° C. by lavage with iced saline containing 10 mM unlabeled arginine to displace any externally bound label. The contents of the washed cells are solubilized in 100 Al of formic acid and counted by standard techniques. In subsequent experiments to determine the acitivity of the inhibitors, incubations were performed for 8 hours.
as §3

[5] = system: TNF; assay: TNF production by LPS/γIFN-stimulated RAW 264.7 cells; assay type: cell-based, murine; settings: even at concentrations of 10 μM
Method: RAW 264.7 cells were plated in standard 6-well culture plates at a density of 10^6/well and allowed to adhere for from 2 hr to overnight. The medium was then replaced with medium containing the compound to be tested. One hour later, the medium was supplemented so as to contain 25 U/ml γIFN and 0.1 μg/ml LPS and the cultures incubated a further 18 hr. The medium was then collected, and cell debris removed by centrifugation. This conditioned supernatant was then assayed for the presence of TNF using standard methodologies: L929 cell cytotoxicity bioassay, radioimmunoassay or ELISA, and Western blotting with antibodies against murine TNF.

[6] = system: Endothelial Derived Relaxing Factor (EDRF) activity; assay: Acetylcholine-induced hypotensive (EDRF) response; assay type: in vivo, rats; settings: 10 mg/Kg single intra-arterial dose; blood pressure 30 sec after ACh
Method: Female Sprague-Dawley rats (225-250 g body weight) were anesthetized with nembutal (50 mg/Kg, i.p.), a tracheostomy tube was inserted, and the carotid artery and jugular vein cannulated by standard methods using polyethylene tubing (PE 50). Tracey, K. J., et al., 1986, SCIENCE 234, 470-474. Blood pressure was recorded continuously with a pressure transducer and recorder (Model RS-3200, Gould Inc.,). In the experiment shown here, animals received a single sterile intra-arterial dose of either N^G-methyl-L-arginine (NMA; Sigma; 10 mg/Kg), Compound No. 14 (50 mg/Kg), or vehicle (0.4 ml). Acetylcholine (ACh) diluted in LPS-free sterile water was administered via the jugular vein cannula at the doses indicated. The solutions were diluted to produce a constant injectable volume of 1 ml/Kg body weight.
The hypotensive (EDRF) response was measured as the decline in mean arterial blood pressure recorded 30 sec after administration of ACh. The number of animals studied at each dose of acetylcholine was 4-6 for each experimental condition; data are expressed as the mean +s.e.m.

[7] = dose 23.3 (dose unit not given)

COc1cc(C=NNC(=N)N)ccc1OCCOc1ccc(C=NNC(=N)N)cc1OC.Cl.Cl [Compound 17, 4,4′-(ethylenedioxy)di-m-anisaldehyde bis(amidinohydrazone) dihydrochloride]
pIC50 [1]: 3.82 | urea % suppression of induced production ([1]; dose 177 μM): 54-100% | Dissolved in (solubility) [2]: Not soluble | melting point: 322 to 323 °C (dec.) | no2/no3 % suppression of induced production ([3]; dose 177 μM): 71-87%

Cl.Cl.N=C(N)NN=Cc1cccc(OCCOc2cccc(C=NNC(=N)N)c2)c1 [Compound 16, 3,3′-(ethylenedioxy)dibenzaldehyde bis(amidinohydrazone) dihydrochloride]
pIC50 [1]: 5.00 to 6.00 | urea % suppression of induced production ([1]; dose 5 μM): 40% | urea % suppression of induced production ([1]; dose 25 μM): 100% | urea % suppression of induced production ([1]; dose 250 μM): 100% | arginine transport % suppression of induced peak ([4]; dose 5 μM): 26% | arginine transport % suppression of induced peak ([4]; dose 25 μM): 44% | arginine transport % suppression of induced peak ([4]; dose 250 μM): 100% | Dissolved in (solubility) [2]: Not soluble; | melting point: 264 to 266 °C | no2/no3 % suppression of induced production ([3]; dose 5 μM): 17% | no2/no3 % suppression of induced production ([3]; dose 25 μM): 90% | no2/no3 % suppression of induced production ([3]; dose 250 μM): 100%

CNC(=N)NCCC[C@H](N)C(=O)O [NMA, N^G-methyl-L-arginine, reference compound]
inhibition of the production of TNF [5]: did not inhibit | acetylcholine-induced EDRF activity in vivo [6]: inhibited

COc1ccc(C=NNC(=N)N)cc1OCCCOc1cc(C=NNC(=N)N)ccc1OC.Cl.Cl [Compound 18, 3,3′-(trimethylenedioxy)di-p-anisaldehyde bis(amidinohydrazone) dihydrochloride]
pIC50 [1]: 4.60 | urea % suppression of induced production ([1]; dose 233 μM): 100% | urea % suppression of induced production ([1]; dose 7.7 (dose unit not given)): 9% | urea % suppression of induced production [1, 7]: 30% | Dissolved in (solubility) [2]: Not soluble | melting point: 233 to 235 °C | no2/no3 % suppression of induced production ([3]; dose 233 μM): 100% | no2/no3 % suppression of induced production ([3]; dose 7.7 (dose unit not given)): 0% | no2/no3 % suppression of induced production [3, 7]: 13%
